Data reported in ChEMBL document CHEMBL4513161, “CO-ADD screening of MMV (CH) - Pandemic Response Box” (2021).
Converted amounts (≈) assume the structure as drawn. Counter-ions that a name gives are not always drawn.

Legend:
HEK293 = assay: cells; type: functional, Homo sapiens, ATCC CRL1573; settings: Homo sapiens, ATCC CRL1573, HEK293; ASSAY_TEST Inhibition of Cell Viability; detection method Resazurin; Fluorescence (ex560/em590); MEDIA DMEM with 10% FBS; plate type 384well; TC; CORNING #3712; time 18 hr; read-out: CC50
Pseudomonas aeruginosa [1] = assay: Antibacterial activity against Pseudomonas aeruginosa PAO397 [PAO1 d(mexAB-oprM) d(mexCD-oprJ) d(mexEF-oprN) d(mexJKL) d(mexXY) d(opmH)] (CO-ADD:GN_211); MIC in CAMBH media using NBS plates, by OD(600); type: functional; settings: ASSAY_TEST Inhibition of Bacterial Growth, detection method Absorption (OD600), MEDIA CAMHB, plate type 384well, CORNING #3640, time 18 hr
Staphylococcus aureus = assay: microbe, parasite or virus in culture; settings: ATCC 43300, 18 h, ASSAY_TEST Inhibition of Bacterial Growth, detection method Absorption (OD600), MEDIA CAMHB, plate type 384well, NBS, CORNING #3640
Description: Antibacterial activity against Staphylococcus aureus MRSA ATCC 43300 (CO-ADD:GP_020); MIC in CAMBH media, using NBS plates, by OD(600)

Escherichia coli = assay: microbe, parasite or virus in culture; settings: ATCC 25922, 18 h, ASSAY_TEST Inhibition of Bacterial Growth, detection method Absorption (OD600), MEDIA CAMHB, plate type 384well, NBS, CORNING #3640
Description: Antibacterial activity against Escherichia coli ATCC 25922 (CO-ADD:GN_001); MIC in CAMBH media using NBS plates, by OD(600)

Klebsiella pneumoniae = assay: microbe, parasite or virus in culture; settings: ATCC 700603, 18 h, ASSAY_TEST Inhibition of Bacterial Growth, detection method Absorption (OD600), MEDIA CAMHB, plate type 384well, NBS, CORNING #3640
Description: Antibacterial activity against Klebsiella pneumoniae MDR ATCC 70063 (CO-ADD:GN_003); MIC in CAMBH media using NBS plates, by OD(600)

Pseudomonas aeruginosa [2] = assay: microbe, parasite or virus in culture; settings: ATCC 27853, 18 h, ASSAY_TEST Inhibition of Bacterial Growth, detection method Absorption (OD600), MEDIA CAMHB, plate type 384well, NBS, CORNING #3640
Description: Antibacterial activity against Pseudomonas aeruginosa ATCC 27853 (CO-ADD:GN_042); MIC in CAMBH media using NBS plates, by OD(600)

Acinetobacter baumannii = assay: microbe, parasite or virus in culture; settings: ATCC 19606, 18 h, ASSAY_TEST Inhibition of Bacterial Growth, detection method Absorption (OD600), MEDIA CAMHB, plate type 384well, NBS, CORNING #3640
Description: Antibacterial activity against Acinetobacter baumannii ATCC 19606 (CO-ADD:GN_034); MIC in CAMBH media using NBS plates, by OD600

Candida albicans = assay: microbe, parasite or virus in culture; settings: ATCC 90028, ASSAY_TEST Inhibition of Fungal Growth, detection method Absorption (OD530), plate type 384well, NBS, CORNING #3640
Description: Antifungal activity against Candida albicans ATCC 90028 (CO-ADD:FG_001); MIC in YNB media using NBS plates, by OD630

Description for Cryptococcus neoformans: Antifungal activity against Cryptococcus neoformans H99 ATCC 208821 (CO-ADD:FG_002); MIC in YNB media using NBS plates, by Resazurin OD(600-570)

| SMILES | MIC (Pseudomonas aeruginosa [1]) | MIC (Cryptococcus neoformans) | MIC (Staphylococcus aureus) | MIC (Escherichia coli) | MIC (Klebsiella pneumoniae) | MIC (Pseudomonas aeruginosa [2]) | MIC (Acinetobacter baumannii) | MIC (Candida albicans) | CC50 (HEK293) |
| --- | --- | --- | --- | --- | --- | --- | --- | --- | --- |
| CC1=C(/C=C/C(C)=C/C=C/C(C)=C/C(=O)Nc2ccc(O)cc2)C(C)(C)CCC1 [FENRETINIDE] | > 20 µM | > 20 µM | > 20 µM | > 20 µM | > 20 µM | > 20 µM | > 20 µM | > 20 µM | > 20 µM |
| Nc1nc2c(ncn2/C=C2/CC2(CO)CO)c(=O)[nH]1 [FILOCICLOVIR] | > 20 µM | > 20 µM | > 20 µM | > 20 µM | > 20 µM | > 20 µM | > 20 µM | > 20 µM | > 20 µM |
| CC(C)Oc1cccc(NC(=O)c2ccccc2C(F)(F)F)c1 [FLUTOLANIL] | > 20 µM | > 20 µM | > 20 µM | > 20 µM | > 20 µM | > 20 µM | > 20 µM | > 20 µM | > 20 µM |
| CCCCc1ccc(C(=O)O)nc1 [FUSARIC ACID] | > 20 µM | > 20 µM | > 20 µM | > 20 µM | > 20 µM | > 20 µM | > 20 µM | > 20 µM | > 20 µM |
| CC(=O)O[C@H]1C[C@@]2(C)[C@@H](C[C@@H](O)[C@H]3[C@@]4(C)CC[C@@H](O)[C@@H](C)[C@@H]4CC[C@@]32C)/C1=C(\CCC=C(C)C)C(=O)O [FUSIDIC ACID] | > 20 µM | > 20 µM | 0.312 µM (≈ 0.161 µg/mL) | > 20 µM | > 20 µM | > 20 µM | > 20 µM | > 20 µM | > 20 µM |
| Nc1nc2c(ncn2COC(CO)CO)c(=O)[nH]1 [GANCICLOVIR] | > 20 µM | > 20 µM | > 20 µM | > 20 µM | > 20 µM | > 20 µM | > 20 µM | > 20 µM | > 20 µM |
| N[C@H](CCC(=O)N[C@@H](Cc1c[nH]c2ccccc12)C(=O)O)C(=O)O [GOLOTIMOD] | > 20 µM | > 20 µM | > 20 µM | > 20 µM | > 20 µM | > 20 µM | > 20 µM | > 20 µM | > 20 µM |
| CN1CCN(c2ccc3[nH]c(-c4ccc5[nH]c(-c6ccc(O)cc6)nc5c4)nc3c2)CC1 [HOECHST 33258] | 20 µM (≈ 8.49 µg/mL) | 2.5 µM (≈ 1.06 µg/mL) | > 20 µM | > 20 µM | > 20 µM | > 20 µM | > 20 µM | 5 µM (≈ 2.12 µg/mL) | > 20 µM |
| Cc1ccc(NC(=O)c2ccc(CN3CCN(C)CC3)cc2)cc1Nc1nccc(-c2cccnc2)n1 [IMATINIB] | > 20 µM | > 20 µM | > 20 µM | > 20 µM | > 20 µM | > 20 µM | > 20 µM | > 20 µM | > 20 µM |
| NC(=O)c1ccc(I)c([N+](=O)[O-])c1 [INIPARIB] | > 20 µM | > 20 µM | > 20 µM | > 20 µM | > 20 µM | > 20 µM | > 20 µM | > 20 µM | > 20 µM |
| CNCC(=O)OCc1cccnc1N(C)C(=O)OC(C)[n+]1cnn(C[C@](O)(c2cc(F)ccc2F)[C@@H](C)c2nc(-c3ccc(C#N)cc3)cs2)c1 (some centres undefined) [ISAVUCONAZONIUM] | > 20 µM | 2.5 µM | > 20 µM | > 20 µM | > 20 µM | > 20 µM | > 20 µM | ≤ 0.156 µM | > 20 µM |
| NNC(=O)c1ccncc1 [ISONIAZID] | > 20 µM | > 20 µM | > 20 µM | > 20 µM | > 20 µM | > 20 µM | > 20 µM | > 20 µM | > 20 µM |
| Cc1c(OCC(F)(F)F)ccnc1C[S+]([O-])c1nc2ccccc2[nH]1 (centres undefined) [LANSOPRAZOLE] | > 20 µM | > 20 µM | > 20 µM | > 20 µM | > 20 µM | > 20 µM | > 20 µM | > 20 µM | > 20 µM |
| Cc1oncc1C(=O)Nc1ccc(C(F)(F)F)cc1 [LEFLUNOMIDE] | > 20 µM | > 20 µM | > 20 µM | > 20 µM | > 20 µM | > 20 µM | > 20 µM | > 20 µM | > 20 µM |
| COc1cccc(N2CCN(C3=Nc4c(F)cccc4[C@H](CC(=O)O)N3c3cc(C(F)(F)F)ccc3OC)CC2)c1 [LETERMOVIR] | > 20 µM | > 20 µM | > 20 µM | > 20 µM | > 20 µM | > 20 µM | > 20 µM | > 20 µM | > 20 µM |
| CC(C)Oc1ccc(-n2cnc3cc(/C=C\c4ccc(C(C)(C)O)cc4)ccc32)cc1 [LHF-535] | > 20 µM | > 20 µM | > 20 µM | > 20 µM | > 20 µM | > 20 µM | > 20 µM | > 20 µM | 10.6 µM |
| C[N+]1(C)CCCC(OC(=O)C(O)(c2ccccc2)c2ccccc2)C1 (centres undefined) [MEPENZOLATE BROMIDE] | > 20 µM | > 20 µM | > 20 µM | > 20 µM | > 20 µM | > 20 µM | > 20 µM | > 20 µM | > 20 µM |

Further lines, with some results ahead:

| MIC (Pseudomonas aeruginosa [1]) | MIC (Cryptococcus neoformans) | MIC (Staphylococcus aureus) | MIC (Escherichia coli) | MIC (Klebsiella pneumoniae) | MIC (Pseudomonas aeruginosa [2]) | MIC (Acinetobacter baumannii) | MIC (Candida albicans) | SMILES | CC50 (HEK293) |
| --- | --- | --- | --- | --- | --- | --- | --- | --- | --- |
| 0.312 µM | > 20 µM | 10 µM | 0.625 µM | 20 µM | > 20 µM | 20 µM | > 20 µM | CCn1cc(C(=O)O)c(=O)c2cc(F)c(N3CCNC(C)C3)c(F)c21 (centres undefined) [LOMEFLOXACIN HYDROCHLORIDE] | > 20 µM |
| > 20 µM | > 20 µM | > 20 µM | > 20 µM | > 20 µM | > 20 µM | > 20 µM | > 20 µM | O=c1nc(N2CCN(CC3CCCCC3)CC2)sc2c([N+](=O)[O-])cc(C(F)(F)F)cc12 [MACOZINONE] | > 20 µM |
| > 20 µM | > 20 µM | > 20 µM | > 20 µM | > 20 µM | > 20 µM | > 20 µM | > 20 µM | NCc1ccc(S(N)(=O)=O)cc1 [MAFENIDE] | > 20 µM |
| > 20 µM | > 20 µM | > 20 µM | > 20 µM | > 20 µM | > 20 µM | > 20 µM | > 20 µM | CC(C)Nc1nc2cc(Cl)c(Cl)cc2n1[C@H]1O[C@@H](CO)[C@H](O)[C@@H]1O [MARIBAVIR] | > 20 µM |
| > 20 µM | 20 µM (≈ 2.78 µg/mL) | > 20 µM | > 20 µM | > 20 µM | > 20 µM | > 20 µM | > 20 µM | Cc1cc(C)n(O)c(=O)c1 [METIPIROX] | > 20 µM |
| > 20 µM | > 20 µM | > 20 µM | > 20 µM | > 20 µM | > 20 µM | > 20 µM | > 20 µM | CSc1ccc2c(c1)C(N1CCN(C)CC1)Cc1ccccc1S2 (centres undefined) [METITEPINE] | > 20 µM |
| > 20 µM | > 20 µM | 1.25 µM (≈ 0.79 µg/mL) | > 20 µM | > 20 µM | > 20 µM | > 20 µM | > 20 µM | Cn1cc(NC(=O)c2cc(NC(=O)c3ccc(/C=C/c4cnc5ccccc5c4)cc3)cn2C)cc1C(=O)NCCN1CCOCC1 [MGB-BP-3] | 1.71 µM |
| > 20 µM | > 20 µM | > 20 µM | > 20 µM | > 20 µM | > 20 µM | > 20 µM | > 20 µM | CC#C[C@]1(O)CC[C@H]2[C@@H]3CCC4=CC(=O)CCC4=C3[C@@H](c3ccc(N(C)C)cc3)C[C@@]21C [MIFEPRISTONE] | > 20 µM |
| > 20 µM | > 20 µM | > 20 µM | > 20 µM | > 20 µM | > 20 µM | > 20 µM | > 20 µM | Cc1ncc([N+](=O)[O-])n1CC(O)CN1CCOCC1 (centres undefined) [MORINIDAZOLE] | > 20 µM |
